Assay results reported in the supplement of paper PMC11061612.

Experiments:
[1] = compound: C=CCn1c(=O)c2cnc(Nc3ccc(N4CCN(C)CC4)cc3)nc2n1-c1cccc(C(C)(C)O)n1 [AZD1775]; conditions: max 3 µM
Summary of the method: (§1)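 Cancer cell lines were plated in 1536-well plates in 7.5 μl of DMEM/F12 or RPMI with 10% FBS and kept 24 hours at 37°C and 5% CO2 before 72 hours of dosing, with final DMSO typically 0.2%. CellTiter-Glo 2.0 luminescence measured viability, scaled between blank-well and DMSO-well means. Dose responses were fitted to a two-parameter logistic curve with a non-linear mixed effects model. This fit gives the single-agent IC50.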

[2] = compound: COc1cc2ncnc(Nc3ccc(F)c(Cl)c3)c2cc1OCCCN1CCOCC1 [Gefitinib]; conditions: max 10 µM
Summary of the method: as §1

[3] = compound: CN(CC[C@H](CSC1=CC=CC=C1)NC2=C(C=C(C=C2)S(=O)(=O)NC(=O)C3=CC=C(C=C3)N4CCC(CC4)[C@H](C5=CC=CC=C5C6=CC=C(C=C6)Cl)O)S(=O)(=O)C(F)(F)F)CCO [AZD4320]; conditions: max 1 µM
Summary of the method: as §1

[4] = compound: CC1=CN2[C@@H](C1)C=NC3=CC(=C(C=C3C2=O)OC)OCCCCCOC4=C(C=C5C(=C4)N=C[C@@H]6CC(=CN6C5=O)C)OC [SG3199]; conditions: max 0.001 µM
Summary of the method: as §1

[5] = compound: COc1cccc(OCCCN)c1-c1cc(Nc2cnc(C#N)cn2)n[nH]1 [Prexasertib]; conditions: max 1 µM
Summary of the method: as §1

[6] = compound: C[C@@H](Oc1cc(-c2cnn(C3CCNCC3)c2)cnc1N)c1c(Cl)ccc(F)c1Cl [Crizotinib]; conditions: max 10 µM
Summary of the method: as §1

[7] = compound: COc1cccc2c1C(=O)c1c(O)c3c(c(O)c1C2=O)C[C@@](O)(C(=O)CO)C[C@@H]3O[C@H]1C[C@H](N)[C@H](O)[C@H](C)O1 [Doxorubicin]; conditions: max 1 µM
Summary of the method: as §1

[8] = compound: CC1=C(C(=CC=C1)Cl)NC(=O)C2=CN=C(S2)NC3=CC(=NC(=N3)C)N4CCN(CC4)CCO [Dasatinib]; conditions: max 2 µM
Summary of the method: as §1

[9] = compound: C[C@@H]1COCCN1C2=NC(=NC(=C2)C3(CC3)[S@](=N)(=O)C)C4=C5C=CNC5=NC=C4 [AZD6738]; conditions: max 10 µM
Summary of the method: as §1

[10] = compound: Cn1cnc2c(F)c(Nc3ccc(Br)cc3Cl)c(C(=O)NOCCO)cc21 [Selumetinib]; conditions: max 10 µM
Summary of the method: as §1

[11] = compound: CS(=O)(=O)CCNCc1ccc(-c2ccc3ncnc(Nc4ccc(OCc5cccc(F)c5)c(Cl)c4)c3c2)o1 [Lapatinib]; conditions: max 10 µM
Summary of the method: as §1

[12] = compound: C[C@@H](c1ccc2nccn2c1)n1nnc2ncc(-c3cnn(C)c3)nc21 [Savolitinib]; conditions: max 1 µM
Summary of the method: as §1

[13] = compound: Cc1nc(-c2cn3c(n2)-c2ccc(-c4cnn(C(C)(C)C(N)=O)c4)cc2OCC3)n(C(C)C)n1 [Taselisib]; conditions: max 10 µM
Summary of the method: as §1

[14] = compound: CC1(C)CCC(CN2CCN(c3ccc(C(=O)NS(=O)(=O)c4ccc(NCC5CCOCC5)c([N+](=O)[O-])c4)c(Oc4cnc5[nH]ccc5c4)c3)CC2)=C(c2ccc(Cl)cc2)C1 [Venetoclax]; conditions: max 1 µM
Summary of the method: as §1

[15] = compound: Cc1c2c(nn1C)CSCc1cc(n(C)n1)CSc1cc(c3ccccc3c1)OCCCc1c(C(=O)O)n(C)c3c-2c(Cl)ccc13 [AZD5991]; conditions: max 1 µM
Summary of the method: as §1

[16] = compound: CC(C)n1c(=O)n(C)c2cnc3cc(F)c(-c4ccc(OCCCN5CCCCC5)nc4)cc3c21 [AZD1390]; conditions: max 0.3 µM
Summary of the method: as §1

[17] = compound: CCN(CCO)CCCOc1ccc2c(Nc3cc(CC(=O)Nc4cccc(F)c4)[nH]n3)ncnc2c1 [AZD2811]; conditions: max 1 µM
Summary of the method: as §1

[18] = compound: CN(C)CCCOc1ccc(-c2ccc3ncc4c(c3c2)n(C2CCOCC2)c(=O)n4C)cn1 [AZD0156]; conditions: max 3 µM
Summary of the method: as §1

[19] = compound: CCc1c2c(nc3ccc(O)cc13)-c1cc3c(c(=O)n1C2)COC(=O)[C@]3(O)CC [SN-38]; conditions: max 0.3 µM
Summary of the method: as §1

[20] = compound: CC(=O)c1c(C)c2cnc(Nc3ccc(N4CCNCC4)cn3)nc2n(C2CCCC2)c1=O [Palbociclib]; conditions: max 10 µM
Summary of the method: as §1

[21] = compound: COc1cc(Nc2ncc3c(n2)-c2ccc(Cl)cc2C(c2c(F)cccc2OC)=NC3)ccc1C(=O)O [Alisertib]; conditions: max 10 µM
Summary of the method: as §1

[22] = compound: C[C@@H](Nc1cc(F)cc(F)c1)c1cc(C(=O)N(C)C)cc2c(=O)cc(N3CCOCC3)oc12 [AZD8186]; conditions: max 3 µM
Summary of the method: as §1

[23] = compound: NC1(c2ccc(-c3nc4ccn5c(=O)[nH]nc5c4cc3-c3ccccc3)cc2)CCC1 [MK-2206]; conditions: max 10 µM
Summary of the method: as §1

[24] = compound: CC(=O)Nc1cccc(-n2c(=O)n(C3CC3)c(=O)c3c(Nc4ccc(I)cc4F)n(C)c(=O)c(C)c32)c1 [Trametinib]; conditions: max 1 µM
Summary of the method: as §1

[25] = compound: COc1nnc2ccc(N3CCC(c4ccc(OCCN5CCN(C)C(=O)[C@H]5C)cc4)CC3)nn12 [AZD5153]; conditions: max 1 µM
Summary of the method: as §1

[26] = compound: O=C(c1cc(Cc2n[nH]c(=O)c3ccccc23)ccc1F)N1CCN(C(=O)C2CC2)CC1 [Olaparib]; conditions: max 10 µM
Summary of the method: as §1

[27] = compound: C1CN(CCC1(C(=O)N[C@@H](CCO)C2=CC=C(C=C2)Cl)N)C3=NC=NC4=C3C=CN4 [Capivasertib]; conditions: max 10 µM
Summary of the method: as §1

[28] = compound: Cc1cc2ncnn2cc1Nc1ncc2c(n1)n(C1CCOCC1)c(=O)n2C [AZD7648]; conditions: max 10 µM
Summary of the method: as §1

| Cell Line | IC50, cell viability 72 h [1] | IC50, cell viability 72 h [2] | IC50, cell viability 72 h [3] | IC50, cell viability 72 h [4] | IC50, cell viability 72 h [5] | IC50, cell viability 72 h [6] | IC50, cell viability 72 h [7] | IC50, cell viability 72 h [8] | IC50, cell viability 72 h [9] | IC50, cell viability 72 h [10] | IC50, cell viability 72 h [11] | IC50, cell viability 72 h [12] | IC50, cell viability 72 h [13] | IC50, cell viability 72 h [14] | IC50, cell viability 72 h [15] | IC50, cell viability 72 h [16] | IC50, cell viability 72 h [17] | IC50, cell viability 72 h [18] | IC50, cell viability 72 h [19] | IC50, cell viability 72 h [20] | IC50, cell viability 72 h [21] | IC50, cell viability 72 h [22] | IC50, cell viability 72 h [23] | IC50, cell viability 72 h [24] | IC50, cell viability 72 h [25] | IC50, cell viability 72 h [26] | IC50, cell viability 72 h [27] | IC50, cell viability 72 h [28] |
| --- | --- | --- | --- | --- | --- | --- | --- | --- | --- | --- | --- | --- | --- | --- | --- | --- | --- | --- | --- | --- | --- | --- | --- | --- | --- | --- | --- | --- |
| B-CPAP (Thyroid Gland Carcinoma) | 1420 nM | > 10000 nM | > 1000 nM | > 1 nM | 149 nM | > 10000 nM | 608 nM | 324 nM | > 10000 nM | > 10000 nM | > 10000 nM | > 1000 nM | > 10000 nM | > 1000 nM | > 1000 nM | > 300 nM | > 1000 nM | > 3000 nM | 25 nM | > 10000 nM | 6620 nM | > 3000 nM | > 10000 nM | > 1000 nM | 379 nM | > 10000 nM | > 10000 nM | > 10000 nM |
| HCC1806 (Breast Carcinoma) | 271 nM | > 10000 nM | > 1000 nM | > 1 nM | 6.18 nM | 9230 nM | 258 nM | 414 nM | 1080 nM | > 10000 nM | 6200 nM | > 1000 nM | 7680 nM | > 1000 nM | > 1000 nM | > 300 nM | > 1000 nM | > 3000 nM | 12.1 nM | > 10000 nM | > 10000 nM | > 3000 nM | > 10000 nM | > 1000 nM | 301 nM | > 10000 nM | > 10000 nM | > 10000 nM |
| MFE-296 (Endometrial Carcinoma) | > 3000 nM | > 10000 nM | > 1000 nM | > 1 nM | 385 nM | > 10000 nM | > 1000 nM | > 2000 nM | > 10000 nM | > 10000 nM | > 10000 nM | > 1000 nM | > 10000 nM | > 1000 nM | > 1000 nM | > 300 nM | > 1000 nM | > 3000 nM | 158 nM | > 10000 nM | > 10000 nM | > 3000 nM | > 10000 nM | > 1000 nM | > 1000 nM | > 10000 nM | > 10000 nM | > 10000 nM |
| OVCA420 (Ovarian Carcinoma) | > 3000 nM | 4450 nM | > 1000 nM | > 1 nM | 178 nM | > 10000 nM | > 1000 nM | 265 nM | > 10000 nM | 7910 nM | 1330 nM | > 1000 nM | 989 nM | > 1000 nM | > 1000 nM | > 300 nM | > 1000 nM | > 3000 nM | > 300 nM | > 10000 nM | > 10000 nM | > 3000 nM | > 10000 nM | 156 nM | 126 nM | > 10000 nM | > 10000 nM | > 10000 nM |
| SNU-5 (Gastric Carcinoma) | 1850 nM | > 10000 nM | > 1000 nM | > 1 nM | 18.1 nM | 86.9 nM | > 1000 nM | > 2000 nM | 1310 nM | 2570 nM | > 10000 nM | 7.44 nM | > 10000 nM | > 1000 nM | > 1000 nM | > 300 nM | > 1000 nM | > 3000 nM | 6.92 nM | > 10000 nM | > 10000 nM | > 3000 nM | > 10000 nM | 81.1 nM | > 1000 nM | > 10000 nM | > 10000 nM | > 10000 nM |
